Measurements from US6914045B2, “Glycopeptide antibiotics” (Wyeth Holdings Corporation, priority 2001, dated 2005).
In brackets after ≈: the same amount, converted by molar mass.

How the values were obtained:
Experiment in all cases: in vitro antibacterial evaluation, MIC by broth dilution
Assay type in all cases: cell-based
Staphylococcus sp. = conditions: broth dilution, 18 hours at 35° C.; for MIC Staphylococcus aureus (GC 1131): strain GC 1131
Outline: (§1)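 Test organisms, which included recent clinical isolates resistant to methicillin, penicillin and/or vancomycin, were inoculated at 5×10^5 CFU/mL into Muller-Hinton II […] containing antibiotic at 64-0.06 μg/mL. Minimum inhibitory concentrations were then read as the lowest level inhibiting growth.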

Escherichia coli = tested on: Escherichia coli
Outline: as §1

Streptococcus sp. = conditions: broth dilution, 18 hours at 35° C.; for MIC Streptococcus pneumoniae (ATCC 6301): strain ATCC 6301; for MIC Streptococcus pneumoniae (GC 1894): strain GC 1894; for MIC Streptococcus pyogenes (GC 4563): strain GC 4563; for MIC Streptococcus agalactiae (GC 4564): strain GC 4564; for MIC Streptococcus pneumoniae (GC 4565): strain GC 4565
Outline: as §1

Enterococcus sp. = conditions: broth dilution, 18 hours at 35° C.; for MIC Enterococcus faecalis (ATCC 29212): strain ATCC 29212; for MIC Enterococcus faecalis (GC 2242): strain GC 2242; for MIC Enterococcus faecium (GC 2243): strain GC 2243; for MIC Enterococcus faecalis (GC 2691): strain GC 2691; for MIC Enterococcus faecalis (GC 3059): strain GC 3059; for MIC Enterococcus faecalis (GC 4552): strain GC 4552; for MIC Enterococcus faecalis (GC 4553): strain GC 4553; for MIC Enterococcus faecalis (GC 4554): strain GC 4554; for MIC Enterococcus faecium (GC 4556): strain GC 4556; for MIC Enterococcus faecium (GC 4557): strain GC 4557; for MIC Enterococcus avium (GC 4558): strain GC 4558; for MIC Enterococcus faecalis (GC 6189): strain GC 6189
Outline: as §1

MIC Staphylococcus aureus (GC 1131) (Staphylococcus sp.; inoculum 5×10^5 CFU/mL): >64 µg/mL
MIC Staphylococcus aureus (ATCC 29213) (Staphylococcus sp.; strain ATCC 29213): >64 µg/mL
MIC Staphylococcus aureus (GC 1131) (Staphylococcus sp.): >64 µg/mL
MIC Staphylococcus aureus (GC 3051) (Staphylococcus sp.; strain GC 3051): >64 µg/mL
MIC Staphylococcus aureus (GC 3053) (Staphylococcus sp.; strain GC 3053): >64 µg/mL
MIC Staphylococcus aureus (GC 4541) (Staphylococcus sp.; strain GC 4541): >64 µg/mL
MIC Staphylococcus aureus (GC 4542) (Staphylococcus sp.; strain GC 4542): >64 µg/mL
MIC Staphylococcus aureus (GC 4544) (Staphylococcus sp.; strain GC 4544): >64 µg/mL
MIC Staphylococcus aureus (GC 4545) (Staphylococcus sp.; strain GC 4545): >64 µg/mL
MIC Staphylococcus aureus-SMITH (GC 4543) (Staphylococcus sp.; strain GC 4543): >64 µg/mL
MIC Coagulase Negative Staphylococcus (GC 4547) (Staphylococcus sp.; strain GC 4547): >64 µg/mL
MIC Coagulase Negative Staphylococcus (GC 4548) (Staphylococcus sp.; strain GC 4548): >64 µg/mL
MIC Coagulase Negative Staphylococcus (GC 4549) (Staphylococcus sp.; strain GC 4549): >64 µg/mL
MIC Coagulase Negative Staphylococcus (GC 4551) (Staphylococcus sp.; strain GC 4551): >64 µg/mL
MIC Coagulase Negative Staphylococcus (GC 6257) (Staphylococcus sp.; strain GC 6257): >64 µg/mL
MIC Escherichia coli (ATCC 25922) (Escherichia coli; strain ATCC 25922, 18 hours at 35° C.): >64 µg/mL
MIC Escherichia coli (GC 4559) (Escherichia coli; strain GC 4559, 18 hours at 35° C.): >64 µg/mL
MIC Escherichia coli (GC 4560) (Escherichia coli; strain GC 4560, 18 hours at 35° C.): >64 µg/mL
MIC Streptococcus pneumoniae (ATCC 6301) (Streptococcus sp.; inoculum 5×10^5 CFU/mL): 4 µg/mL (≈ 2.61 µM)
MIC Streptococcus pneumoniae (GC 1894) (Streptococcus sp.; inoculum 5×10^5 CFU/mL): 8 µg/mL (≈ 5.21 µM)
MIC Streptococcus pyogenes (GC 4563) (Streptococcus sp.; inoculum 5×10^5 CFU/mL): 64 µg/mL (≈ 41.7 µM)
MIC Streptococcus agalactiae (GC 4564) (Streptococcus sp.; inoculum 5×10^5 CFU/mL): 32 µg/mL (≈ 20.9 µM)
MIC Streptococcus pneumoniae (GC 4565) (Streptococcus sp.; inoculum 5×10^5 CFU/mL): 8 µg/mL (≈ 5.21 µM)
MIC Streptococcus pneumoniae (ATCC 6301) (Streptococcus sp.): 4 µg/mL (≈ 2.61 µM)
MIC Streptococcus pneumoniae (GC 1894) (Streptococcus sp.): 8 µg/mL (≈ 5.21 µM)
MIC Streptococcus pyogenes (GC 4563) (Streptococcus sp.): 64 µg/mL (≈ 41.7 µM)
MIC Streptococcus agalactiae (GC 4564) (Streptococcus sp.): 32 µg/mL (≈ 20.9 µM)
MIC Streptococcus pneumoniae (GC 4565) (Streptococcus sp.): 8 µg/mL (≈ 5.21 µM)
MIC Enterococcus faecalis (ATCC 29212) (Enterococcus sp.; inoculum 5×10^5 CFU/mL): >64 µg/mL
MIC Enterococcus faecalis (GC 2242) (Enterococcus sp.; inoculum 5×10^5 CFU/mL): >64 µg/mL
MIC Enterococcus faecium (GC 2243) (Enterococcus sp.; inoculum 5×10^5 CFU/mL): >64 µg/mL
MIC Enterococcus faecalis (GC 2691) (Enterococcus sp.; inoculum 5×10^5 CFU/mL): >64 µg/mL
MIC Enterococcus faecalis (GC 3059) (Enterococcus sp.; inoculum 5×10^5 CFU/mL): >64 µg/mL
MIC Enterococcus faecalis (GC 4552) (Enterococcus sp.; inoculum 5×10^5 CFU/mL): >64 µg/mL
MIC Enterococcus faecalis (GC 4553) (Enterococcus sp.; inoculum 5×10^5 CFU/mL): >64 µg/mL
MIC Enterococcus faecalis (GC 4554) (Enterococcus sp.; inoculum 5×10^5 CFU/mL): >64 µg/mL
MIC Enterococcus faecium (GC 4556) (Enterococcus sp.; inoculum 5×10^5 CFU/mL): >64 µg/mL
MIC Enterococcus faecium (GC 4557) (Enterococcus sp.; inoculum 5×10^5 CFU/mL): >64 µg/mL
MIC Enterococcus avium (GC 4558) (Enterococcus sp.; inoculum 5×10^5 CFU/mL): >64 µg/mL
MIC Enterococcus faecalis (GC 6189) (Enterococcus sp.; inoculum 5×10^5 CFU/mL): >64 µg/mL
MIC Enterococcus faecalis (ATCC 29212) (Enterococcus sp.): >64 µg/mL
MIC Enterococcus faecalis (GC 2242) (Enterococcus sp.): >64 µg/mL
MIC Enterococcus faecium (GC 2243) (Enterococcus sp.): >64 µg/mL
MIC Enterococcus faecalis (GC 2691) (Enterococcus sp.): >64 µg/mL
MIC Enterococcus faecalis (GC 3059) (Enterococcus sp.): >64 µg/mL
MIC Enterococcus faecalis (GC 4552) (Enterococcus sp.): >64 µg/mL
MIC Enterococcus faecalis (GC 4553) (Enterococcus sp.): >64 µg/mL
MIC Enterococcus faecalis (GC 4554) (Enterococcus sp.): >64 µg/mL
MIC Enterococcus faecium (GC 4556) (Enterococcus sp.): >64 µg/mL
MIC Enterococcus faecium (GC 4557) (Enterococcus sp.): >64 µg/mL
MIC Enterococcus avium (GC 4558) (Enterococcus sp.): >64 µg/mL
MIC Enterococcus faecalis (GC 6189) (Enterococcus sp.): >64 µg/mL
SMILES: CC(c1ccccc1)C1NC(=O)CNC(=O)C(CO)NC(=O)C(C(O)C2CNC(=N)N2C2OC(CO)C(O)C(O)C2O)NC(=O)C(C(O)C2CNC(=N)N2)NC(=O)C(Cc2ccc(OC3OC(CO)C(OC4OC5COC(c6cccc(OCc7ccc([N+](=O)[O-])cc7)c6)OC5C(O)C4O)C(O)C3O)cc2)NC1=O (centres unmarked) [Example 182]
MIC Staphylococcus haemolyticus (GC 4546) (Staphylococcus sp.; strain GC 4546): >64 µg/mL
